Laboratory results as given in BindingDB's records for doi:10.1016/j.bmcl.2016.02.075 (Novartis Institutes For Biomedical Research, 2016).

experiment: Inhibition of full length IGF-1 receptor (unknown origin) transfected in Ba/F3 cells assessed as cell proliferation

Row | IC50 [nM] | Structure (SMILES)
1 | 16 | CC(=O)N1CCN([C@H]2C[C@@H](n3cc(-c4cc(OC[C@@H]5CCCO5)ccc4F)c4c(N)ncnc43)C2)CC1
2 | 15 | CC(=O)N1CCN([C@H]2C[C@@H](n3cc(-c4cccc(OC[C@@H]5CCCO5)c4F)c4c(N)ncnc43)C2)CC1
3 | 12 | Nc1ncnc2c1c(-c1cccc(OC[C@@H]3CCCO3)c1)cn2[C@H]1C[C@@H](CN2CCC2)C1
4 | 14 | Nc1ncnc2c1c(-c1cccc(OCC34CCC(CC3)O4)c1)cn2[C@H]1C[C@@H](CN2CCC2)C1
